Structures can show the parent of a compound that is named as a salt. ± gives the uncertainty stated by the source.
Assays:
[1] = test system: KeratinoSens (HaCaT ARE-luciferase) cells; assay: efficacy of ARE luciferase induction relative to DMSO (% activity over DMSO); higher = stronger induction; conditions: exposure time: 24 h
[2] = test system: cysteine peptide Ac-RFAACAA-COOH; assay: efficacy of cysteine peptide change (negative = depletion) (% activity); higher = less depletion; conditions: incubation time: 24 h
THP-1 [3] = assay: efficacy of IL-8 induction relative to DMSO (% activity); higher = stronger induction; conditions: exposure time: 18 h
[4] = test system: KeratinoSens (HaCaT ARE-luciferase) cells; assay: cytotoxicity AC50 (CellTiter-Fluor viability); higher = less cytotoxic; conditions: exposure time: 24 h
[5] = test system: cysteine peptide Ac-RFAACAA-COOH; assay: AC50 of cysteine peptide concentration-response (direction given by sign of efficacy); higher = less potent; conditions: incubation time: 24 h
THP-1 [6] = assay: AC50 of IL-8 secretion induction; higher = less potent; conditions: exposure time: 18 h
[7] = test system: lysine peptide Ac-RFAAKAA-COOH; assay: efficacy of lysine peptide change (negative = depletion) (% activity); higher = less depletion; conditions: incubation time: 24 h
[8] = test system: KeratinoSens (HaCaT ARE-luciferase) cells; assay: AC50 of Nrf2/ARE luciferase induction; higher = less potent; conditions: exposure time: 24 h

Row | Compound | efficacy of ARE luciferase induction [1] | efficacy of cysteine peptide change [2] | efficacy of IL-8 induction (THP-1 [3]) | cytotoxicity AC50 [4] | AC50 [5] | AC50 of IL-8 secretion induction (THP-1 [6]) | efficacy of lysine peptide change [7] | AC50 of Nrf2/ARE luciferase induction [8]
1 | O=[N+]([O-])c1cc(C(F)(F)F)c(Cl)c([N+](=O)[O-])c1Cl [2,4-Dichloro-1,3-dinitro-5-(trifluoromethyl)benzene] | -10.8 ± 42 | -83.7 ± 9 | 64.7 ± 13 | 26.1 ± 1.8 µM | 23.8 ± 18 µM | 17.2 µM | 251 ± 34 | 
2 | Sc1nc2ccccc2s1 [2-Mercaptobenzothiazole] | 87.1 ± 23 | -86.4 ± 10 | 21.3 ± 41 |  | 32.9 ± 2.2 µM | 28.3 µM | 40.3 ± 17 | 20.7 µM
3 | Cn1sccc1=O [2-Methyl-4-isothiazolin-3-one hydrochloride] | 118 ± 32 | -98.5 ± 3.1 | 50.4 ± 5.3 | 25.2 ± 2.9 µM | 2.42 ± 0.16 µM | 35.9 µM | -0.97 ± 8.8 | 13.7 µM
4 | c1csc(SSc2cccs2)c1 [2-Thienyl disulfide] | 126 ± 80 | -94.7 ± 2.8 | 81.3 ± 8.7 | 41.4 ± 2.8 µM | 1.04 ± 0.07 µM | 82.7 µM | -11.6 ± 10 | 33.5 µM
5 | c1cc(N(CC2CO2)CC2CO2)ccc1Cc1ccc(N(CC2CO2)CC2CO2)cc1 (stereo unspecified) [4,4'-Methylenebis(N,N-diglycidylaniline)] | 57 ± 38 |  | 103 ± 16 | 35.5 µM |  | 37.1 µM |  | 15.8 µM
6 | CCCCCCCCn1sc(Cl)c(Cl)c1=O [4,5-Dichloro-2-octyl-3(2H)-isothiazolone] | -41.3 ± 5.3 | -98.9 ± 3.5 | 50.1 ± 4.7 | 12.1 ± 0.79 µM | 0.88 ± 0.21 µM | 11.7 µM | -94.5 ± 3.8 | 
7 | c1cc(N(CC2CO2)CC2CO2)ccc1OCC1CO1 (stereo unspecified) [4-(Diglycidylamino)phenyl glycidyl ether] | 103 ± 58 | -36.5 ± 12 | 62.3 ± 18 | 63.9 ± 12 µM | 20.3 ± 16 µM | 76.9 µM | 41.8 ± 1.5 | 32.9 µM
8 | CNc1ccc(O)cc1 [4-(Methylamino)phenol Sulfate] | 65.8 ± 4.2 | -82.7 ± 14 | 8.27 ± 13 | 27.3 ± 3.8 µM | 0.16 ± 0.06 µM | 46.7 µM | -10.9 ± 3 | 
9 | Nc1ncn([C@@H]2O[C@H](CO)[C@@H](O)[C@H]2O)c(=O)n1 [5-Azacytidine] | 275 ± 140 | 4.3 ± 7.4 | 55 ± 5.8 | 17.8 ± 6.3 µM |  | 41.6 µM | 6.9 ± 7.1 | 18.9 µM
10 | CN(C)c1ccc(N(C)C)cc1 [*N,N,N',N'-Tetramethyl-p-phenylenediamine] | 98.6 ± 34 | -93.1 ± 3.4 | 130 ± 7.7 | 57 ± 12 µM | 3.26 ± 0.91 µM | 76.5 µM | -28.7 ± 13 | 20.9 µM
11 | S=C=NCc1ccccc1 [BENZYL ISOTHIOCYANATE] | 278 ± 170 | -57.9 ± 6.4 | 40.8 ± 25 |  | 34.2 ± 2.2 µM | 11.4 µM | 19.8 ± 9.3 | 24.8 µM
12 | N=C1C=CC(=C(c2ccc(N)cc2)c2ccc(N)cc2)C=C1 [C.I. Basic Red 9 monohydrochloride] | 38.6 ± 64 | -58.7 ± 20 | 100 ± 9.3 | 34.2 ± 2.2 µM | 38.4 ± 2.5 µM | 44.7 µM | 182 ± 33 | 
13 | Oc1c(I)cc(Cl)c2cccnc12 [Clioquinol] | 87.3 ± 32 | -68.8 ± 8.1 | 125 ± 14 | 10.4 ± 1.3 µM | 1.52 ± 0.89 µM | 21.6 µM | -8.28 ± 7.3 | 6.33 µM
14 | COc1cc(/C=C2\CCC/C(=C\c3ccc(O)c(OC)c3)C2=O)ccc1O [Cyclovalone] | 242 ± 83 | -50.1 ± 12 | 44.5 ± 6.9 | 22.5 ± 2.6 µM | 0.87 ± 0.35 µM | 40 µM | 15.9 ± 15 | 15.8 µM
15 | O=C1c2ccccc2C(=O)C1c1ccc2ccccc2n1 [D & C Yellow II] | 68.8 ± 34 | -22.9 ± 5.9 | 71.4 ± 9.3 | 28.2 µM |  | 38.4 µM | -13.8 ± 13 | 11.6 µM
16 | CCS(=O)(=O)CCSP(=O)(OC)OC [Demeton-S-methylsulphon] | 28.1 ± 59 | -43.5 ± 12 | 108 ± 5.1 | 22.5 ± 2.6 µM |  | 30.7 µM | -8 ± 20 | 19 µM
17 | CCC1OCC(COc2ccc(Oc3ccccc3)cc2)O1 (stereo unspecified) [Diofenolan] | 138 ± 84 | 8.44 ± 17 | 113 ± 5.8 | 24.4 ± 4.2 µM |  | 34.2 µM | 0.82 ± 8.5 | 13.7 µM

Row | Compound | efficacy of ARE luciferase induction [1] | efficacy of cysteine peptide change [2] | efficacy of IL-8 induction (THP-1 [3]) | cytotoxicity AC50 [4] | AC50 [5] | AC50 of IL-8 secretion induction (THP-1 [6]) | efficacy of lysine peptide change [7] | AC50 of Nrf2/ARE luciferase induction [8]
18 | CC(C)=CCC1C(=O)N(c2ccccc2)N(c2ccccc2)C1=O [Feprazone] | 281 ± 320 | -88.7 ± 16 | 60.5 ± 9.2 | 40 ± 4.6 µM |  | 85.9 µM | 0 | 46 µM
19 | c1coc(-c2nc3ccccc3[nH]2)c1 [Fuberidazole] | 96.2 ± 26 | -100 ± 9.1 | 78.3 ± 0.93 | 38.7 ± 6.6 µM | 12.3 ± 4.7 µM | 48.3 µM | -20.8 ± 15 | 32 µM
20 | O=[N+]([O-])c1cc(N(CCO)CCO)ccc1NCCO [HC Blue 2] | 0 | -49.3 ± 1.9 | 38.4 ± 82 |  | 18.7 ± 3.4 µM | 66.8 µM | 0 | 
21 | CC(O)C#CC(C)O (stereo unspecified) [Hex-3-yne-2,5-diol] | -35.2 ± 7.1 | -101 ± 4.2 | 62.2 ± 17 | 32.9 ± 2.2 µM | 4.16 ± 0.53 µM | 41.4 µM | -5.13 ± 15 | 
22 | CN(C)c1ccc(C(=C2C=CC(=[N+](C)C)C=C2)c2ccccc2)cc1 [Malachite green oxalate*] | -37.3 ± 7.1 | -94.9 ± 1.7 | 47.7 ± 7.8 | 8.91 µM | 4.18 ± 2 µM | 15.3 µM | 36.4 ± 15 | 
23 | CC(C)CC(C)Nc1ccc(Nc2ccccc2)cc1 (stereo unspecified) [N-(1,3-Dimethylbutyl)-N'-phenyl-p-phenylenediamine] | 148 ± 100 | -77.3 ± 10 | 29.6 ± 1.7 | 38.5 ± 5.3 µM | 0.88 ± 0.99 µM | 32.9 µM | 2.97 ± 5.1 | 26.4 µM
24 | c1ccc2sc(SNC3CCCCC3)nc2c1 [N-Cyclohexyl-2-benzothiazolesulfenamide] | 135 ± 140 | -89.9 ± 7 | 101 ± 42 |  | 11.1 ± 3.1 µM | 85.9 µM | 24.6 ± 4.2 | 
25 | N=C(N)NN=C(/C=C/c1ccc([N+](=O)[O-])o1)/C=C/c1ccc([N+](=O)[O-])o1 [Nitrovin] | 46.8 ± 140 | -105 ± 8.6 | 63.3 ± 30 | 6.97 ± 1.7 µM | 5.39 ± 1.6 µM | 11.6 µM | -31.7 ± 10 | 
26 | C[C@@H]1O[C@@H](O[C@H]2C[C@@H](O)[C@]3(CO)[C@H]4[C@H](O)C[C@]5(C)[C@@H](C6=CC(=O)OC6)CC[C@]5(O)[C@@H]4CC[C@]3(O)C2)[C@H](O)[C@H](O)[C@H]1O [Ouabain] | 220 ± 65 | 3.17 ± 11 | 35.4 ± 9.9 | 1.58 µM |  | 2.99 µM | 6.65 ± 12 | 0.96 µM
27 | CCCCc1ccc2[nH]c(NC(=O)OC)nc2c1 [Parbendazole*] | 66.8 ± 26 | -4.47 ± 11 | 77.1 ± 5.2 | 5.79 ± 1.6 µM |  | 38.4 µM | 56 ± 8.1 | 21.1 µM
28 | Nc1ccc2cc3ccc(N)cc3nc2c1 [Proflavin hemisulfate#] | 390 ± 270 | 88.8 ± 300 | 68 ± 3.1 |  | 11.9 ± 20 µM | 35.5 µM | 115 ± 4.9 | 7.94 µM
29 | CC(C)OC(=S)S [Proxan-sodium] | 59.5 ± 100 | -94.2 ± 20 | 59.9 ± 7.8 | 37.3 ± 6.7 µM | 73.6 ± 37 µM | 35.9 µM | 10.8 ± 20 | 
30 | CC(C)CP(=S)(S)CC(C)C [Sodium bis(2-methylpropyl)phosphinodithioate] | 168 ± 27 | -92.6 ± 1.4 | 82.4 ± 10 | 21.1 ± 9.9 µM | 76.5 ± 25 µM | 38.4 µM | 108 ± 18 | 
31 | O=c1[nH]sc2cc(Cl)ccc12 [Ticlatone] | 55.4 ± 80 | -90.5 ± 5.6 | 92.2 ± 7.7 | 13.2 ± 2.4 µM | 0.65 ± 0.18 µM | 21.6 µM | -0.22 ± 12 | 
32 | O=c1n(CC2CO2)c(=O)n(CC2CO2)c(=O)n1CC1CO1 (stereo unspecified) [Triglycidyl isocyanurate] | 90.3 ± 20 | -3.96 ± 6.9 | 157 ± 24 | 28.3 ± 3.2 µM |  | 36.9 µM | 35 ± 20 | 14.1 µM
33 | Cc1cc(C2(c3cc(C)c(O)cc3C)OS(=O)(=O)c3ccccc32)c(C)cc1O [p-Xylenol blue] | 0 | -13.7 ± 2.3 | 45.6 ± 8.1 | 28.6 ± 6 µM |  | 52.2 µM | 121 ± 16 | 
34 | CC(C)(C)c1cc(O)ccc1O [tert-Butylhydroquinone] | 293 ± 55 | -112 ± 5.2 | 114 ± 90 |  | 34.8 ± 13 µM | 39.8 µM | -30.8 ± 9.1 | 33 µM

Reference: the supplement of paper PMC10933113
